{"source": "patent US6358885B1", "about": "“Substituted phenylheterocyclic herbicides” (Mississippi State University, priority 1992, dated 2002)", "key": {"corn": {"tested_on": "corn", "assay": "Test C preemergence/postemergence greenhouse plant response rating 0 to 100", "assay_type": "in vivo, Zea mays", "settings": "POSTEMERGENCE; for Plant response rating, Corn: 0 to 100 scale", "method_in_brief": "(§1)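 Compounds in non-phytotoxic solvent applied preemergence to sandy loam one day after planting, postemergence at the 1–4 leaf stage, or to ~2.5 cm floodwater over silt loam.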"}, "lambsquarters [1]": {"tested_on": "lambsquarters", "assay": "Test C preemergence/postemergence greenhouse plant response rating 0 to 100", "assay_type": "in vivo, Chenopodium album", "settings": "POSTEMERGENCE; for Plant response rating Lambsquarters: 0 to 100 scale", "method_in_brief": "as §1"}, "barley": {"tested_on": "barley", "assay": "Test C preemergence/postemergence greenhouse plant response rating 0 to 100", "assay_type": "in vivo, Hordeum vulgare", "settings": "POSTEMERGENCE; for Plant response rating Barley Igri: 0 to 100 scale", "method_in_brief": "as §1"}, "soybean [2]": {"tested_on": "soybean", "assay": "Test B preemergence/postemergence greenhouse plant response rating 0 to 10", "assay_type": "in vivo, Glycine max", "settings": "0 to 10 scale", "method_in_brief": "(§2)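 Test chemicals were sprayed onto freshly planted seed and, concurrently, onto young plants between the one and four leaf stage. After a twelve- to sixteen-day greenhouse period, each species was visually compared with untreated controls.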"}, "cotton": {"tested_on": "cotton", "assay": "Test B preemergence/postemergence greenhouse plant response rating 0 to 10", "assay_type": "in vivo, Gossypium hirsutum", "settings": "0 to 10 scale", "method_in_brief": "as §2"}, "velvetleaf [3]": {"tested_on": "velvetleaf", "assay": "Test C preemergence/postemergence greenhouse plant response rating 0 to 100", "assay_type": "in vivo, Abutilon theophrasti", "settings": "POSTEMERGENCE; for Plant response rating, Velvetleaf: 0 to 100 scale", "method_in_brief": "as §1"}, "cheatgrass": {"tested_on": "cheatgrass", "assay": "Test B preemergence/postemergence greenhouse plant response rating 0 to 10", "assay_type": "in vivo, Bromus secalinus", "settings": "0 to 10 scale", "method_in_brief": "as §2"}, "wild buckwheat": {"tested_on": "wild buckwheat", "assay": "Test B preemergence/postemergence greenhouse plant response rating 0 to 10", "assay_type": "in vivo, Polygonum convolvulus", "settings": "0 to 10 scale", "method_in_brief": "as §2"}, "velvetleaf [4]": {"tested_on": "velvetleaf", "assay": "Test B preemergence/postemergence greenhouse plant response rating 0 to 10", "assay_type": "in vivo, Abutilon theophrasti", "settings": "0 to 10 scale", "method_in_brief": "as §2"}, "lambsquarters [5]": {"tested_on": "lambsquarters", "assay": "Test B preemergence/postemergence greenhouse plant response rating 0 to 10", "assay_type": "in vivo, Chenopodium album", "settings": "0 to 10 scale", "method_in_brief": "as §2"}, "rape": {"tested_on": "rape", "assay": "Test C preemergence/postemergence greenhouse plant response rating 0 to 100", "assay_type": "in vivo, Brassica napus", "settings": "POSTEMERGENCE; for Plant response rating, Rape: 0 to 100 scale", "method_in_brief": "as §1"}, "umbrella sedge": {"tested_on": "umbrella sedge", "assay": "Test C flood test plant response rating 0 to 100", "assay_type": "in vivo, Cyperus difformis", "settings": "for Plant response rating (0 to 100), Umbrella sedge: under POSTEMERGENCE head (flood test species); for Plant response rating Umbrella sedge: flood test species listed under POSTEMERGENCE, 0 to 100 scale", "method_in_brief": "as §1"}, "morningglory": {"tested_on": "morningglory", "assay": "Test C preemergence/postemergence greenhouse plant response rating 0 to 100", "assay_type": "in vivo, Ipomoea hederacea", "settings": "POSTEMERGENCE; for Plant response rating, Morningglory: 0 to 100 scale", "method_in_brief": "as §1"}, "sorghum": {"tested_on": "sorghum", "assay": "Test C preemergence/postemergence greenhouse plant response rating 0 to 100", "assay_type": "in vivo, Sorghum bicolor", "settings": "POSTEMERGENCE; for Plant response rating, Sorghum: 0 to 100 scale", "method_in_brief": "as §1"}, "soybean [6]": {"tested_on": "soybean", "assay": "Test C preemergence/postemergence greenhouse plant response rating 0 to 100", "assay_type": "in vivo, Glycine max", "settings": "POSTEMERGENCE; for Plant response rating, Soybean: 0 to 100 scale", "method_in_brief": "as §1"}, "rice": {"tested_on": "rice", "assay": "Test B preemergence/postemergence greenhouse plant response rating 0 to 10", "assay_type": "in vivo, Oryza sativa", "settings": "0 to 10 scale", "method_in_brief": "as §2"}, "sugar beet": {"tested_on": "sugar beet", "assay": "Test C preemergence/postemergence greenhouse plant response rating 0 to 100", "assay_type": "in vivo, Beta vulgaris", "settings": "POSTEMERGENCE; for Plant response rating, Sugar beet: 0 to 100 scale", "method_in_brief": "as §1"}, "purple nutsedge": {"tested_on": "purple nutsedge", "assay": "Test B preemergence/postemergence greenhouse plant response rating 0 to 10", "assay_type": "in vivo, Cyperus rotundus", "settings": "0 to 10 scale", "method_in_brief": "as §2"}}, "data": [{"smiles": "C#CC(C)Oc1cc(-c2nn3c(c2Cl)CCCC3)c(F)cc1Cl", "note": "(stereo not drawn) [Compound 36]", "values": [{"measurement": "Plant response rating, Corn", "setting": "corn; 62 g/ha", "result": 50}, {"measurement": "Plant response rating, Corn", "setting": "corn; 125 g/ha", "result": 60}, {"measurement": "Plant response rating (0 to 100), Corn", "setting": "corn; Rate 16 g/ha", "result": 30}, {"measurement": "Plant response rating (0 to 100), Corn", "setting": "corn; Rate 31 g/ha", "result": 40}, {"measurement": "Plant response rating Lambsquarters", "setting": "lambsquarters [1]; 62 g/ha", "result": 100}, {"measurement": "Plant response rating Lambsquarters", "setting": "lambsquarters [1]; 125 g/ha", "result": 100}, {"measurement": "Plant response rating (0 to 100), Lambsquarters", "setting": "lambsquarters [1]; Rate 16 g/ha", "result": 90}, {"measurement": "Plant response rating (0 to 100), Lambsquarters", "setting": "lambsquarters [1]; Rate 31 g/ha", "result": 95}, {"measurement": "Plant response rating Barley Igri", "setting": "barley; 62 g/ha", "result": 30}, {"measurement": "Plant response rating Barley Igri", "setting": "barley; 125 g/ha", "result": 50}, {"measurement": "Plant response rating (0 to 100), Barley Igri", "setting": "barley; Rate 16 g/ha", "result": 20}, {"measurement": "Plant response rating (0 to 100), Barley Igri", "setting": "barley; Rate 31 g/ha", "result": 30}, {"measurement": "Plant response rating, Soybean", "setting": "soybean [2]; POSTEMERGENCE, Rate 50 g/ha", "result": 9}, {"measurement": "Plant response rating, Soybean", "setting": "soybean [2]; PREEMERGENCE, Rate 50 g/ha", "result": 0}, {"measurement": "Plant response rating, Soybean", "setting": "soybean [2]; Rate 200 g/ha, POSTEMERGENCE", "result": 9}, {"measurement": "Plant response rating, Soybean", "setting": "soybean [2]; Rate 200 g/ha, PREEMERGENCE", "result": 2}, {"measurement": "Plant response rating, Cotton", "setting": "cotton; POSTEMERGENCE, Rate 50 g/ha", "result": 9}, {"measurement": "Plant response rating, Cotton", "setting": "cotton; POSTEMERGENCE, Rate 200 g/ha", "result": 10}, {"measurement": "Plant response rating, Cotton", "setting": "cotton; PREEMERGENCE, Rate 50 g/ha", "result": 4}, {"measurement": "Plant response rating, Cotton", "setting": "cotton; Rate 200 g/ha, PREEMERGENCE", "result": 6}, {"measurement": "Plant response rating, Velvetleaf", "setting": "velvetleaf [3]; 62 g/ha", "result": 100}, {"measurement": "Plant response rating, Velvetleaf", "setting": "velvetleaf [3]; 125 g/ha", "result": 100}, {"measurement": "Plant response rating (0 to 100), Velvetleaf", "setting": "velvetleaf [3]; Rate 16 g/ha", "result": 100}, {"measurement": "Plant response rating (0 to 100), Velvetleaf", "setting": "velvetleaf [3]; Rate 31 g/ha", "result": 100}, {"measurement": "Plant response rating, Cheatgrass", "setting": "cheatgrass; POSTEMERGENCE, Rate 50 g/ha", "result": 5}, {"measurement": "Plant response rating, Cheatgrass", "setting": "cheatgrass; POSTEMERGENCE, Rate 200 g/ha", "result": 7}, {"measurement": "Plant response rating, Cheatgrass", "setting": "cheatgrass; PREEMERGENCE, Rate 50 g/ha", "result": 4}, {"measurement": "Plant response rating, Cheatgrass", "setting": "cheatgrass; Rate 200 g/ha, PREEMERGENCE", "result": 6}, {"measurement": "Plant response rating, Wild buckwheat", "setting": "wild buckwheat; POSTEMERGENCE, Rate 50 g/ha", "result": 10}, {"measurement": "Plant response rating, Wild buckwheat", "setting": "wild buckwheat; PREEMERGENCE, Rate 50 g/ha", "result": 10}, {"measurement": "Plant response rating, Wild buckwheat", "setting": "wild buckwheat; Rate 200 g/ha, POSTEMERGENCE", "result": 10}, {"measurement": "Plant response rating, Wild buckwheat", "setting": "wild buckwheat; Rate 200 g/ha, PREEMERGENCE", "result": 10}, {"measurement": "Plant response rating, Velvetleaf", "setting": "velvetleaf [4]; POSTEMERGENCE, Rate 50 g/ha", "result": 10}, {"measurement": "Plant response rating, Velvetleaf", "setting": "velvetleaf [4]; PREEMERGENCE, Rate 50 g/ha", "result": 8}, {"measurement": "Plant response rating, Velvetleaf", "setting": "velvetleaf [4]; Rate 200 g/ha, POSTEMERGENCE", "result": 10}, {"measurement": "Plant response rating, Velvetleaf", "setting": "velvetleaf [4]; Rate 200 g/ha, PREEMERGENCE", "result": 10}, {"measurement": "Plant response rating, Lambsquarter", "setting": "lambsquarters [5]; POSTEMERGENCE, Rate 50 g/ha", "result": 10}, {"measurement": "Plant response rating, Lambsquarter", "setting": "lambsquarters [5]; PREEMERGENCE, Rate 50 g/ha", "result": 10}, {"measurement": "Plant response rating, Lambsquarter", "setting": "lambsquarters [5]; Rate 200 g/ha, POSTEMERGENCE", "result": 10}, {"measurement": "Plant response rating, Lambsquarter", "setting": "lambsquarters [5]; Rate 200 g/ha, PREEMERGENCE", "result": 10}, {"measurement": "Plant response rating, Rape", "setting": "rape; 62 g/ha", "result": 100}, {"measurement": "Plant response rating, Rape", "setting": "rape; 125 g/ha", "result": 100}, {"measurement": "Plant response rating (0 to 100), Rape", "setting": "rape; Rate 16 g/ha", "result": 85}, {"measurement": "Plant response rating (0 to 100), Rape", "setting": "rape; Rate 31 g/ha", "result": 90}, {"measurement": "Plant response rating (0 to 100), Umbrella sedge", "setting": "umbrella sedge; Rate 16 g/ha", "result": 0}, {"measurement": "Plant response rating (0 to 100), Umbrella sedge", "setting": "umbrella sedge; Rate 31 g/ha", "result": 20}, {"measurement": "Plant response rating Umbrella sedge", "setting": "umbrella sedge; 62 g/ha", "result": 70}, {"measurement": "Plant response rating Umbrella sedge", "setting": "umbrella sedge; 125 g/ha", "result": 80}, {"measurement": "Plant response rating, Morningglory", "setting": "morningglory; 62 g/ha", "result": 100}, {"measurement": "Plant response rating, Morningglory", "setting": "morningglory; 125 g/ha", "result": 100}, {"measurement": "Plant response rating (0 to 100), Morningglory", "setting": "morningglory; Rate 16 g/ha", "result": 80}, {"measurement": "Plant response rating (0 to 100), Morningglory", "setting": "morningglory; Rate 31 g/ha", "result": 80}, {"measurement": "Plant response rating, Sorghum", "setting": "sorghum; 62 g/ha", "result": 60}, {"measurement": "Plant response rating, Sorghum", "setting": "sorghum; 125 g/ha", "result": 70}, {"measurement": "Plant response rating (0 to 100), Sorghum", "setting": "sorghum; Rate 16 g/ha", "result": 40}, {"measurement": "Plant response rating (0 to 100), Sorghum", "setting": "sorghum; Rate 31 g/ha", "result": 50}, {"measurement": "Plant response rating, Soybean", "setting": "soybean [6]; 62 g/ha", "result": 80}, {"measurement": "Plant response rating, Soybean", "setting": "soybean [6]; 125 g/ha", "result": 100}, {"measurement": "Plant response rating (0 to 100), Soybean", "setting": "soybean [6]; Rate 16 g/ha", "result": 50}, {"measurement": "Plant response rating (0 to 100), Soybean", "setting": "soybean [6]; Rate 31 g/ha", "result": 50}, {"measurement": "Plant response rating, Rice", "setting": "rice; POSTEMERGENCE, Rate 50 g/ha", "result": 6}, {"measurement": "Plant response rating, Rice", "setting": "rice; PREEMERGENCE, Rate 50 g/ha", "result": 0}, {"measurement": "Plant response rating, Rice", "setting": "rice; Rate 200 g/ha, POSTEMERGENCE", "result": 6}, {"measurement": "Plant response rating, Rice", "setting": "rice; Rate 200 g/ha, PREEMERGENCE", "result": 4}, {"measurement": "Plant response rating, Sugar beet", "setting": "sugar beet; 62 g/ha", "result": 100}, {"measurement": "Plant response rating, Sugar beet", "setting": "sugar beet; 125 g/ha", "result": 100}, {"measurement": "Plant response rating (0 to 100), Sugar beet", "setting": "sugar beet; Rate 16 g/ha", "result": 95}, {"measurement": "Plant response rating (0 to 100), Sugar beet", "setting": "sugar beet; Rate 31 g/ha", "result": 100}, {"measurement": "Plant response rating, Nutsedge", "setting": "purple nutsedge; POSTEMERGENCE, Rate 50 g/ha", "result": 4}, {"measurement": "Plant response rating, Nutsedge", "setting": "purple nutsedge; PREEMERGENCE, Rate 50 g/ha", "result": 0}, {"measurement": "Plant response rating, Nutsedge", "setting": "purple nutsedge; Rate 200 g/ha, POSTEMERGENCE", "result": 5}, {"measurement": "Plant response rating, Nutsedge", "setting": "purple nutsedge; Rate 200 g/ha, PREEMERGENCE", "result": 2}]}]}
